Legend:
Format in all cases: in vivo
[1] = tested on: Euschistus heros-Neotropical Brown Stink Bugs; test: Stink bug feeding damage on soybean pods; conditions: 3% compound, soybean plants at R6 stage, 48 hours
Experimental: To compare the feeding/resting preference of stink bug adults for different plant parts, 10 pots with soybean plants at the R6 (pod-filling) stage of development are used. 5 pots of soybeans are sprayed with 3% of treatment in a 2% Triton X:water solution and 5 pots of soybean are treated with 2% Triton X:water solution as controls. Thirty stink bugs are placed individually in each cage and allowed to feed for 48 hours. Insects are removed and plant parts are collected for visual analysis of damage. Feeding damage on the pods is counted for both treatments. The selective antifeeding rate (%) formula is [(C−T)/(C+T)]×100, and the non-selective antifeeding rate (%) formula is [(C−T)/C)]×100, where C and T are the numbers of feeding damages on the control and treated plant pods, respectively.

Popillia japonica = test: Japanese beetle feeding damage on basil; conditions: 3% compound; basil leaf disks; adult beetle; 24 h
Experimental: Japanese Beetle Feeding Damage on Basil For choice feeding assays, 3% alcohol solutions of the tested compounds are prepared. Disks (4.0 cm in diameter) are cut from basil leaves and are dipped in the test solutions or alcohol alone as a control. After the complete evaporation of the solvent, the disks are offered to 1 adult beetle. All dishes are placed in an incubator. Four replicates are used for each chemical. After 24 h, the remaining uneaten area of each basil leaf disk is measured using a scanner and software. The selective antifeeding rate (%) formula is [(C−T)/(C+T)]×100, and the non-selective antifeeding rate (%) formula is [(C−T)/C)]×100, where C and T are the areas consumed by the control and treated leaf disks, respectively.

Tineola spp. = test: Clothes moth feeding damage on silk fabric, choice test; conditions: 3% compound; silk disks; late instar larvae; 24 hours; control 50/50
Experimental: For feeding assays, 3% alcohol solutions of the tested compounds are prepared. Disks (2.0 cm in diameter) of undyed silk fabric are dipped in the test solutions or alcohol alone as a control. After the complete evaporation of the solvent, the disks are presented in a choice test to 10 late instar Tineola spp. larvae. All dishes are placed in an incubator in the dark. Four replicates are used for each chemical. After 24 hours, the number of individuals choosing to feed on each disk are counted.

[2] = tested on: brown marmorated stink bugs (BMSB); test: Repellency as feeding deterrence in brown marmorated stink bugs, treated filter paper with green bean; conditions: compound at 3.5% in a 57% Ethanol:43% water solution; control 38%
Experimental: A test was designed to measure the repellency as feeding deterrence in brown marmorated stink bugs (BMSB). Five replicates of 5 BMSBs were introduced into test arenas, containing one 60 mm×15 mm Petri dish with treated filter papers in which a food source (green bean) was attached, at the start of the test. The small Petri dishes containing the treated filter paper and food source were covered with a fitted Petri dish lid in between observation times, and were removed 5 minutes before each observation time to prevent stink bugs from feeding until sated. The distribution of the BMSBs was observed and documented hourly for 5 hours.

Row | Structure (SMILES) | % Antifeedent Activity [1] | % Repellency (Popillia japonica) | Individuals choosing to feed on each disk: Treated (Tineola spp.) | Individuals choosing to feed on each disk: Untreated (Tineola spp.) | Repellency averaged over 5 hours [2]
1 | CC/C(C)=C/CC/C(C)=C/CC1CCCC1=O (stereo not drawn) [Methyl Apritone] | 60% | 15% | 20 | 80 | 
2 | CCCCCC1C(=O)CCC1CC(=O)OCCC (stereo not drawn) [Propyl Dihydrojasmonate] | 100% | 15% | 20 | 80 | 100%

Source: patent US11224223B2, “Feeding deterrence of pests such as Hemiptera, Lepidoptera and Coleoptera” (BEDOUKIAN RESEARCH, INC., priority 2012, dated 2022)
